PubChem BioAssay (NCI)
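Grown in 96-well plates, cells were treated for 48 hours with each compound at five concentrations. Insufficient inhibition: endpoint recorded as highest concentration tested. TGI marks complete inhibition of growth.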

Key:
Assay in all cases: NCI-60 cell line screen, 48 h
[1] = tested on: NCI-H23 lung
[2] = tested on: SK-MEL-5 melanoma
[3] = tested on: HT29 colon
[4] = tested on: U251 CNS
[5] = tested on: MALME-3M melanoma
[6] = tested on: DLD-1 colon
[7] = tested on: SNB-78 CNS
[8] = tested on: COLO 205 colon
[9] = tested on: LOX IMVI melanoma
[10] = tested on: SF-539 CNS
[11] = tested on: HOP-62 NSCLC
[12] = tested on: SK-OV-3 ovarian
[13] = tested on: HCT-116 colon
[14] = tested on: OVCAR-8 ovarian
[15] = tested on: SR leukemia
[16] = tested on: UACC-62 melanoma
[17] = tested on: DMS 114 small cell lung
[18] = tested on: MOLT-4 leukemia
[19] = tested on: NCI-H460 lung
[20] = tested on: OVCAR-3 ovarian
[21] = tested on: M14 melanoma
[22] = tested on: IGROV1 ovarian
[23] = tested on: A549 NSCLC
[24] = tested on: SNB-75 CNS
[25] = tested on: SK-MEL-2 melanoma
[26] = tested on: SF-268 CNS
[27] = tested on: DMS 273 small cell lung
[28] = tested on: HOP-92 NSCLC
[29] = tested on: SNB-19 CNS
[30] = tested on: HCC-2998 colon
[31] = tested on: SK-MEL-28 melanoma
[32] = tested on: SF-295 CNS
[33] = tested on: RXF 393 renal
[34] = tested on: NCI-H522 lung
[35] = tested on: CAKI-1 renal
[36] = tested on: SW-620 colon
[37] = tested on: EKVX NSCLC
[38] = tested on: UO-31 renal
[39] = tested on: M19-MEL melanoma
[40] = tested on: K-562 leukemia
[41] = tested on: TK-10 renal
[42] = tested on: XF 498 CNS
[43] = tested on: NCI-H226 lung
[44] = tested on: CCRF-CEM leukemia
[45] = tested on: OVCAR-4 ovarian
[46] = tested on: OVCAR-5 ovarian
[47] = tested on: KM12 colon
[48] = tested on: 786-0 renal
[49] = tested on: HL-60(TB) leukemia
[50] = tested on: RPMI-8226 leukemia
[51] = tested on: ACHN renal
[52] = tested on: SN12C renal
[53] = tested on: KM20L2 colon
[54] = tested on: UACC-257 melanoma
[55] = tested on: HCT-15 colon
[56] = tested on: LXFL 529 NSCLC
[57] = tested on: A498 renal
[58] = tested on: HOP-18 NSCLC

Compound: C=CCN1C(=O)NC(=O)/C(=C/c2c3ccccc3cc3ccccc23)C1=O
- TGI [1]: > 10 µM
- TGI [2]: > 10 µM
- TGI [3]: 37.9 µM
- TGI [4]: 36.5 µM
- TGI [5]: 39.3 µM
- TGI [6]: 44.7 µM
- TGI [7]: > 100 µM
- TGI [8]: 35.3 µM
- TGI [9]: 75.4 µM
- TGI [10]: 38.1 µM
- TGI [11]: 33.2 µM
- TGI [12]: 66 µM
- TGI [13]: 30.8 µM
- TGI [14]: 55 µM
- TGI [15]: 74 µM
- TGI [16]: 50.4 µM
- TGI [17]: 45.2 µM
- TGI [18]: 48.9 µM
- TGI [19]: 37 µM
- TGI [20]: 42.3 µM
- TGI [21]: 37.2 µM
- TGI [22]: > 10 µM
- TGI [23]: 58.2 µM
- TGI [24]: 45 µM
- TGI [25]: 38.7 µM
- TGI [26]: 60.8 µM
- TGI [27]: 43.4 µM
- TGI [28]: 54.4 µM
- TGI [29]: 47.7 µM
- TGI [30]: 28.4 µM
- TGI [31]: 68.1 µM
- TGI [32]: 38.3 µM
- TGI [33]: 34.6 µM
- TGI [34]: 44.8 µM
- TGI [35]: 40.3 µM
- TGI [36]: > 100 µM
- TGI [37]: 48.8 µM
- TGI [38]: 37 µM
- TGI [39]: > 100 µM
- TGI [40]: 66.5 µM
- TGI [41]: 37.4 µM
- TGI [42]: 40.7 µM
- TGI [43]: 45.9 µM
- TGI [44]: > 100 µM
- TGI [45]: 47.5 µM
- TGI [46]: 44.4 µM
- TGI [47]: 31.8 µM

Compound: CCOC(=O)C1(C)CCC(C(=O)OC)C1=O (stereo not drawn)
- TGI [1]: > 100 µM
- TGI [2]: > 100 µM
- TGI [3]: > 100 µM
- TGI [4]: > 100 µM
- TGI [5]: > 100 µM
- TGI [6]: > 100 µM
- TGI [48]: > 100 µM
- TGI [7]: > 100 µM
- TGI [8]: > 100 µM
- TGI [49]: > 100 µM
- TGI [9]: 32.9 µM
- TGI [10]: > 100 µM
- TGI [50]: > 100 µM
- TGI [51]: > 100 µM
- TGI [11]: > 100 µM
- TGI [12]: > 100 µM
- TGI [52]: > 100 µM
- TGI [13]: > 100 µM
- TGI [14]: > 100 µM
- TGI [15]: 51 µM
- TGI [16]: > 100 µM
- TGI [17]: 35.1 µM
- TGI [18]: > 100 µM
- TGI [53]: > 100 µM
- TGI [19]: 28.6 µM
- TGI [20]: > 100 µM
- TGI [21]: > 100 µM
- TGI [22]: > 100 µM
- TGI [23]: > 100 µM
- TGI [24]: > 100 µM
- TGI [25]: > 100 µM
- TGI [26]: > 100 µM
- TGI [28]: > 100 µM
- TGI [29]: > 100 µM
- TGI [30]: > 100 µM
- TGI [31]: > 100 µM
- TGI [32]: > 100 µM
- TGI [33]: > 100 µM
- TGI [34]: 31.7 µM
- TGI [35]: > 100 µM
- TGI [37]: > 100 µM
- TGI [38]: > 100 µM
- TGI [39]: > 100 µM
- TGI [40]: > 100 µM
- TGI [54]: > 100 µM
- TGI [55]: 43.1 µM
- TGI [41]: > 100 µM
- TGI [42]: > 100 µM
- TGI [43]: > 100 µM
- TGI [56]: > 100 µM
- TGI [44]: 57.7 µM
- TGI [45]: > 100 µM
- TGI [57]: > 100 µM
- TGI [46]: > 100 µM
- TGI [58]: > 100 µM
- TGI [47]: > 100 µM
